US4897390A, “Novel anti-obesity compounds and method of use” (priority 1987, dated 1990)

What was measured:
[1] = Body weight of C57-WH mice treated with β-MET for 14 weeks; assay type: in vivo; details: for mean weight after 14 weeks: 0.07 mg (~4.6 mg/kg) PO three times weekly, n=10; for significance of difference in mean weights versus control: significant at p<0.01
Procedure: (§1) Forty C57-WH mice were maintained five per cage in a temperature-controlledroom (25° C.) with 12-h light/day (7:00 A.M. to 7:00 P.M.). All mice were at ten weeks of age when the experiment was begun.
(§2) The mice were divided into four groups: β-MET-treated female; control female; β-MET-treated male; and control male (for each group, n=10). All β-MET-treated animals received 0.07 mg (~4.6 mg/kg) of the β-MET administered as a suspension in sesame oil by PO intubation three times weekly. The control animals received only sesame oil. The mice were treated for a period of 14 weeks with access to Purina Laboratory chow and water ad libitum. Body weights were recorded weekly, and food consumption was determined by subtracting the food remaining from the food supplied at the beginning of each week.
(§3) Student's t-test was used in all statistical analyses of the data. Data are presented as means ±SD from the four groups of mice. Differences were considered significant at p<0.01.

[2] = Cumulative food consumption of C57-WH mice treated with β-MET for 14 weeks; assay type: in vivo
Procedure: as §1, §2, §3

[3] = Short-term (thirty day) treatment with large doses in mice; assay type: in vivo, C57-WH mice
Procedure: Five male and five female C57-WH mice (age: ~11 weeks, weight: ~15 g each) each received 200 mg/kg of β-MET, suspended in sesame oil, by p.o. intubation every second day for a period of thirty days. Another group of ten matched controls received only the sesame oil. […] Abnormalities such as hypertrophic lymph nodes, diarrhea, bloody stools, or loss of hair luster were not seen.

Salmonella typhimurium = details: alone and with liver homogenate fraction from rat treated with polychlorinated biphenyl
Procedure: β-MET was tested for mutagenicity by administration to a his^- auxotrophic mutant of Salmonella typhimurium.β-MET was administered alone and with a liver homogenate fraction from a rat that had been treated with polychlorinated biphenyl.

[4] = tested on: uterine weight of the immature mouse; assay: Estrogenic effect: uterine weight of the immature mouse; assay type: in vivo, C57-WH mice
Procedure: Immature female C57-WH mice were maintained at 25° C. at 12 hours light/12 hours dark (lights on at 0800 h and off at 2000 h). Purina Lab Chow and water were available ad libitum. The control and each experimental group of animals consisted of six mice. Treatment began after an acclimation period of five days. Beginning at 27 days of age and continuing for three consecutive days, the mice were orally intubated with DHEA or β-MET suspended in sesame oil. The control mice received only sesame oil. Between 1400-1600 h on day 30, all animals were sacrificed by an overdose of ether. Uteri were removed, cleaned of adventitious tissue, and weighed to the nearest 0.5 mg.
All reported results are expressed as the mean plus or minus the standard error (mean±SE).

[5] = Acute oral toxicity in mice (LD50); assay type: in vivo, C57-WH mice
Procedure: The LD50 of β-MET administered orally in mice could not be accurately determined. However, five male and five female C57-WH mice, each weighing approximately 15 g, received 200 mg of β-MET, suspended in sesame oil, by p.o. intubation.

obesity [6] = assay: Anti-obesity efficacy in various mammalian systems (general statement); assay type: in vivo
[7] = tested on: glucose-6-phosphate dehydrogenase (G6PD); details: cited from earlier work
fatty acid synthetase [8] = details: cited from earlier work
11β-hydroxylase = details: cited from earlier work
[9] = cited from earlier work
NADH oxidase = details: cited from earlier work
[10] = tested on: thyroid stimulating hormone and thyroxine; details: cited from earlier work
[11] = DHEA treatment in mice; cited from earlier work
fatty acid synthetase [12] = details: prolonged treatment; mice with excessive levels of this enzyme; cited from earlier work
[13] = cited from earlier work; for deactivation and excretion from general circulation: once excreted from cells to the general circulation; for conjugation in blood stream: when excreted by individual cells to the blood stream
obesity [14] = details: known; cited from earlier work
[15] = 200 mg/kg p.o. every second day for thirty days

Question: With `C[C@H]1CC[C@@]2(C)[C@H](CC[C@@H]3[C@@H]2CC[C@]2(C)C(=O)CC[C@@H]32)C1` [β-MET, 3-β-methyl-5-β-androstan-17-one] as the molecule, how does the “mean weight after 14 weeks” value ([1]; female, control female 26.1 g) read?
Answer: 21.8 g

Question: And the “significance of difference in mean weights versus control” value ([1]; female)?
Answer: a significant difference in mean weights was observed after the third week of treatment

Question: What about the “inhibition of weight gain” value ([1]; male and female C57-WH mice, 14 weeks (FIG. 5)) of the same molecule?
Answer: significantly inhibits weight gain

Question: What about the “mean weight after 14 weeks” value ([1]; male, control male 24.8 g) of the same molecule?
Answer: 20.7 g

Question: And the “significance of difference in mean weights versus control” value ([1]; male)?
Answer: statistically significant after the sixth week of treatment

Question: What about the “food intake versus control” value ([2]; female, 14 weeks (FIG. 6)) of the same molecule?
Answer: not significantly different

Question: What about the effect on appetite ([2]; male and female (FIG. 6)) of the same molecule?
Answer: without suppressing appetite

Question: And the “cumulative food consumption versus control” value ([2]; male, 14 weeks (FIG. 6))?
Answer: not significantly different

Question: What about the “behavioral or external physical differences from controls” value [3, 15] of the same molecule?
Answer: no obvious behavioral or external physical differences from controls

Question: What about the “hypertrophic lymph nodes, diarrhea, bloody stools, or loss of hair luster” value [3, 15] of the same molecule?
Answer: not seen

Question: What about the postmortem studies [3, 15] of the same molecule?
Answer: no gross abnormalities or visible pathological changes

Question: And the survival and health [3, 15]?
Answer: all experimental mice were alive and apparently healthy

Question: And the “harm by short-term treatment with relatively large doses” value ([3]; approximately 20x the effective anti-obesity dose in mice)?
Answer: appears not to be harmful to mice

Question: And the “examination of visible membranes” value ([3]; mouse, in vivo, po, 200 mg/kg)?
Answer: no abnormal findings

Question: What about the mutagenicity (Salmonella typhimurium) of the same molecule?
Answer: not mutagenic

Question: And the estrogenic activity ([4]; mouse, in vivo)?
Answer: does not exhibit similar estrogenic activity

Question: What about the survival ([5]; 200 mg p.o. per ~15 g mouse, five male and five female) of the same molecule?
Answer: All of the animals survived

Question: And the LD50 ([5]; mouse, in vivo, po, mice, p.o. in sesame oil)?
Answer: > 10000 mg/kg

Question: What about the “inhibition of obesity in comparison to 3β-HET” value (obesity [6]; comparison to 3β-HET) of the same molecule?
Answer: much more effective inhibitor of obesity

Question: And the “antiobesity efficacy and safety” value (obesity [6]; various mammalian systems)?
Answer: safe and effective antiobesity agent

Question: With `C[C@]12CC[C@H](O)CC1=CC[C@@H]1[C@@H]2CC[C@]2(C)C(=O)CC[C@@H]12` [DHEA, dehydroepiandrosterone] as the molecule, how does the “inhibition of mammalian G6PD” value [7] read?
Answer: known to inhibit mammalian glucose-6-phosphate dehydrogenase

Question: What about the “inhibition of fatty acid synthetase” value (fatty acid synthetase [8]) of the same molecule?
Answer: known to directly inhibit fatty acid synthetase

Question: What about the “inhibition of 11β-hydroxylase” value (11β-hydroxylase) of the same molecule?
Answer: known to inhibit 11β-hydroxylase

Question: What about the toxicity in humans ([9]; in vivo) of the same molecule?
Answer: relatively low toxicity in humans

Question: What about the “estrogenic and androgenic effects” value ([9]; long-term administration, humans) of the same molecule?
Answer: Estrogenic and androgenic effects

Question: And the “inhibition of NADH oxidase” value (NADH oxidase)?
Answer: known inhibitor of NADH oxidase

Question: And the Uterine weight ([4]; daily dose 400.0 mg/kg, oral, three consecutive days from day 27, mean±SE, control 58.0 ± 3)?
Answer: 257.0 ± 5 mg/100 g body weight

Question: And the thyroid follicle epithelium ([10]; rat studies)?
Answer: hypertrophy of the thyroid follicle epithelium

Question: What about the “levels of thyroid stimulating hormone and thyroxine in the blood” value ([10]; rat, in vivo) of the same molecule?
Answer: known to increase levels of thyroid stimulating hormone and thyroxine in the blood

Question: And the “lipogenesis and fat cell size” value [11]?
Answer: decreases in lipogenesis and fat cell size

Question: What about the “liver and adipose tissue fatty acid synthetase activity” value (fatty acid synthetase [12]) of the same molecule?
Answer: decrease liver and adipose tissue fatty acid synthetase activity

Question: Which results are given for `C[C@]12CC[C@H](O)C[C@H]1CC[C@@H]1[C@@H]2CC[C@]2(C)C(=O)CC[C@@H]12` [β-HET, 5-β-androstan-3-β-ol-17-one]?
Answer: deactivation and excretion from general circulation [13]: rapidly deactivated and excreted from the body; conjugation in blood stream [13]: conjugated to glucuronic acid at the 3-hydroxy position; anti-obesity effects attributed to DHEA (obesity [14]): known to accomplish the anti-obesity effects attributed to DHEA

Question: Which “deactivation and excretion from general circulation” value [13] does the source give for `C[C@]12CC[C@@H](O)C[C@H]1CC[C@@H]1[C@@H]2CC[C@]2(C)C(=O)CC[C@@H]12` [α-HET, 3α-hydroxyetiocholanone] here?
Answer: rapidly deactivated and excreted from the body

Question: What about the “conjugation in blood stream” value [13] of the same molecule?
Answer: conjugated to glucuronic acid at the 3-hydroxy position

Question: What about the “anti-obesity effects attributed to DHEA” value (obesity [14]) of the same molecule?
Answer: known to accomplish the anti-obesity effects attributed to DHEA
